Here are results for 15 molecules from patent publication US12358904B2, “Inhibitors of TYK2” (Atomwise Inc., priority 2023, dated 2025).

SMILES strings stand for the structures.

The target of one test is T1, TYK2-JH2 (Homo sapiens, UniProt P29597).
T1 construct: TYK JH2 enzyme mix (ChemPartnec CP20210818A-BV); purchased ChemPartner CP20210818A-BV
Description: TYK2-JH2 HTRF binding assay (ligand efficiency). The settings on record: calculated from IC50 of the TYK-JH2 binding assay (Equation 1). The essentials: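 His-tagged TYK2 JH2 (0.5 nM) preincubated 10 min at RT with compound (0.1–0.000005 μM) in 20 mM HEPES pH 7.5, 10 mM MgCl2, 0.01% Triton X-100, 1 mM DTT; then 35 nM tracer plus anti-6HIS Tb cryptate, 60 min RT. TR-FRET read (Ex340/Em495/520); IC50 converted to ligand efficiency.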

Another test relates to IL-12/pSTAT4. Description: IL-12 induced pSTAT4 assay in NK-92 cells. Type of test: cell-based. To be noted: Homo sapiens, NK92, IL-12 stimulation, read-out: Cellular potency (IL-12/pSTAT4). The essentials: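 Overnight-starved NK-92 cells (20K/well) pre-incubated with compounds (1000 to 0.05 nM final) 30 min at 37 °C, then stimulated with IL-12 (10 ng/ml) for 30 min at 37 °C. Lysates assayed for pSTAT4 (Tyr693) by MSD electrochemiluminescence.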

For the next test, the system named is IL-6/pSTAT3. Description: IL-6 induced pSTAT3 assay in TF-1 cells. Format: cell-based. The settings on record: Homo sapiens, read-out: Cellular selectivity (IL-6/pSTAT3). The protocol: The following example describes the IL-6 induced pSTAT3 assay used to determine the cellular selectivity (IL-6/pSTAT3) of the TYK2 inhibitors.
TF-1 (ATCC®, CRL-2003™) cells were cultured in RPMI 1640 Medium, with GlutaMAX™ Supplement, HEPES for Cell Culture (Life Technologies, 72400047), 10% Fetal Bovine Serum (Life Technologies, 26400044), 2 ng/mL human recombinant GM-CSF (Life Technologies, PHC2013), 1 mM Sodium pyruvate (Life Technologies, 11360039), 1% MEM NEAA (Life Technologies, 11140-035), 1% Penicillin/Streptomycin (Life Technologies, 15140-122).
TF-1 (70×10^6) cells were starved overnight in T01 50 flasks (Opti-MEM™ I Reduced Serum Medium, no phenol red (Life Technologies, 11058-021), 1 mM Na pyruvate (Life Technologies, 11360039), 1% MEM NEAA (Life Technologies, 11140-035), and 1% Penicillin/Streptomycin (Life Technologies, 15140-122)) then seeded into 96-well TPP plates (150 000 cell/well) and incubated with test compounds (Final Concentration [nM] 10000-0.05) for 30 minutes at 37° C. […] Stimulation was terminated by addition of lysis buffer (MSD K150SVD) and pSTAT3 detection was measured with Phospho-STAT3 (Tyr705) Kit MSD K150SVD)) according to manufacturer's instruction. Briefly, cell lysates were added to pre-blocked plates, sealed, and shake for 1 hour at room temperature. Plates were then washed and incubated with detection antibody for 1 hour at room temperature. After washing, Read Buffer was added, and plates were read on MSD instrument (Model 1300 MSD Quickplex SQ 120).

Another test relates to GM-CSF/pSTAT5. Put plainly: GM-CSF induced pSTAT5 assay in CellSensor irf1-bla TF-1 cells. Format: cell-based. To be noted: GM-CSF 1 ng/mL; for IC50: Homo sapiens, read-out: Cellular selectivity (GM-CSF induced pSTAT5). The procedure: The CellSensor irf1-bla TF-1 cell line (LifeTechnologies, K1657) was cultured in RPMI 1640 Medium (Invitrogen 72400-047), 10% Fetal Bovine Serum (Invitrogen, 26400044), 1 mM Sodium pyruvate (Life Technologies, 11360039), 1% MEM NEAA (Life Technologies, 11140-035), 2 ng/ml of human recombinant GM-CSF (Fisher, PHC2015), 1% Penicillin/Streptomycin (Life Technologies, 15140-122) and 5 μg/ml of Blasticidin (ThermoFisher, A1113903).
The cell line was seeded in a T75 flask at 13×10^6 cells/50 mL in starvation medium (Opti-MEM™ I Reduced Serum Medium, no phenol red (Life Technologies, 11058-021), 1 mM Na pyruvate (Life Technologies, 11360039), 1% MEM NEAA (Life Technologies, 11140-035), and 1% Penicillin/Streptomycin (Life Technologies, 15140-122)) for 16 hours at 37° C. under 5% CO2 the day before the assay.
For the assay, CellSensor irf1-bla TF-1 cells were seeded at 30 000 cells/32 μL (starvation medium)/well in a 384-well plate.
Compounds were added on the cells in 4 μL (starvation medium)/well at 10× the final concentration. They were incubated for 30 minutes at 37° C.
Human recombinant carrier-free GM-CSF (ThermoFisher, ref PHC2015) was added to the wells in 4 μL (starvation medium)/well at 10×. The final concentration was 1 ng/mL. Control wells without GM-CSF treatment were added. Plates were incubated for 5 hours at 37° C.
6× LiveBlazer-FRET substrate (Invitrogen, K1085) was added to the wells at 8 μL/well. The substrate was prepared shortly before use by mixing 6 μL of solution A and 60 μL of solution B to 934 μL of solution C. Plates were incubated for 2.5 hours at room temperature in the dark. The plates were read on an Envision (Perkin Elmer) with an excitation at a wavelength of 409 nm and two wavelengths for the emission 520 nm and 450 nm. The ratio between the […] emission was used to calculate the IC50s.
The IC50 for the inhibition of pSTAT5 was calculated with the Xlfit software using the 4 Parameter Logistic Model or Sigmoidal Dose-Response Model (model 205).

T1 sequence (P29597 589-875 limits assumed): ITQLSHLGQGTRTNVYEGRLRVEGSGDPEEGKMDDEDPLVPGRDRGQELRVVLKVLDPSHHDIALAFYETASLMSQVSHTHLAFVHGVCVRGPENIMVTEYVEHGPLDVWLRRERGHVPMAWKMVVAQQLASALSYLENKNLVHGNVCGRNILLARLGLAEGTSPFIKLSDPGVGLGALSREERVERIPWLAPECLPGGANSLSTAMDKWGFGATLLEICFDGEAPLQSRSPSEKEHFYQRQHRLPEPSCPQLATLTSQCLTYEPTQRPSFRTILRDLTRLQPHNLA

With `CC(C)[C@@H](c1ccc(Nc2cc(Nc3ncccc3S(C)(=O)=O)ncn2)nc1)N1CC2(COC2)C1` [Compound 13, (S)—N^4-(5-(2-methyl-1-(2-oxa-6-azaspiro[3.3]heptan-6-yl)propyl)pyridine-2-yl)-N^6-(3-(methylsulfonyl)93yridine-2-yl)pyrimidine-4,6-diamine], the “Ligand Efficiency” value at TYK2-JH2 is on record as “†† (††: 0.37-0.39)”. Moreover, the IC50 in the test on IL-12/pSTAT4 was under 0.1 µM; in the test on IL-6/pSTAT3 it was 4 to 10 µM; in the test with GM-CSF/pSTAT5, over 10 µM.

Take `C[C@H](c1ccc(Nc2cc(Nc3ncccc3S(C)(=O)=O)ncn2)nc1)N1CC2(COC2)C1` [Compound 17, I—N^4-(5-(1-(2-oxa-6-azaspiro[3.3]heptan-6-yl)ethyl) 73yridine-2-yl)-N^6-(3-(methylsulfonyl)73yridine-2-yl)pyrimidine-4,6-diamine]: the “Ligand Efficiency” value on TYK2-JH2 is listed as “†† (††: 0.37-0.39)”. The results for the IC50 in the test with IL-12/pSTAT4 and in the test with IL-6/pSTAT3 were under 0.1 µM and over 10 µM, respectively. The “Cellular selectivity (GM-CSF induced pSTAT5)” value with GM-CSF/pSTAT5 is reported as “††††”.

Turning to `CS(=O)(=O)c1cccnc1Nc1cc(Nc2cccc(C(F)(F)F)n2)ncn1` [Compound 19, N^4-(3-(methylsulfonyl)100yridine-2-yl)-N^6-(6-(trifluoromethyl) 100yridine-2-yl)pyrimidine-4,6-diamine], the “Ligand Efficiency” value at TYK2-JH2 was “††† (†††: >0.39)”. The IC50 in the test on IL-12/pSTAT4 is under 0.1 µM; in the test with IL-6/pSTAT3, over 10 µM; in the test with GM-CSF/pSTAT5, over 10 µM.

In the case of `CC1(Nc2ccc(Nc3cc(Nc4ncccc4S(C)(=O)=O)ncn3)nc2)COC1` [Compound 21, N^4-(5-((3-methyloxetan-3-yl)amino)102yridine-2-yl)-N^6-(3-(methylsulfonyl)102yridine-2-yl)pyrimidine-4,6-diamine], on TYK2-JH2, the “Ligand Efficiency” value is recorded as “††† (†††: >0.39)”. Besides, the IC50 is under 0.1 µM in the test with IL-12/pSTAT4, 4 to 10 µM in the test on IL-6/pSTAT3 and over 10 µM with GM-CSF/pSTAT5.

In the case of `CC(c1ccc(Nc2cc(Nc3ncccc3S(C)(=O)=O)ncn2)nc1)N1CC(F)C1` (stereo not drawn) [Compound 22, N^4-(5-(1-(3-fluoroazetidin-1-yl)ethyl)102yridine-2-yl)-N^6-(3-(methylsulfonyl)102yridine-2-yl)pyrimidine-4,6-diamine], the “Ligand Efficiency” value at TYK2-JH2 is recorded as “††† (†††: >0.39)”. Further, the IC50 in the test with IL-12/pSTAT4 was under 0.1 µM; in the test with IL-6/pSTAT3, 4 to 10 µM; in the test with GM-CSF/pSTAT5, over 10 µM.

Regarding `Cc1cc(Nc2cc(Nc3ncccc3S(C)(=O)=O)ncn2)ncc1NC1(C)COC1` [Compound 23, N^4-(4-methyl-5-((3-methyloxetan-3-yl)amino)103yridine-2-yl)-N^6-(3-(methylsulfonyl)103yridine-2-yl)pyrimidine-4,6-diamine], the “Ligand Efficiency” value on TYK2-JH2 is given as “††† (†††: >0.39)”. In addition, the IC50 in the test with IL-12/pSTAT4 is under 0.1 µM; in the test with IL-6/pSTAT3, over 10 µM; in the test on GM-CSF/pSTAT5 it was over 10 µM.

With `CC(NC1CCOC1)c1ccc(Nc2cc(Nc3ccccc3S(C)(=O)=O)ncn2)nc1` (stereo not drawn) [Compound 26, N^4-(2-(methylsulfonyl)phenyl)-N^6-(5-(1-(tetrahydrofuran-3-ylamino)ethyl)106yridine-2-yl)pyrimidine-4,6-diamine], the “Ligand Efficiency” value at TYK2-JH2 is “†† (††: 0.37-0.39)”. Besides, the IC50 in the test with IL-12/pSTAT4 is under 0.1 µM; in the test on IL-6/pSTAT3, over 10 µM; in the test with GM-CSF/pSTAT5, over 10 µM.

Turning to `CS(=O)(=O)c1ccccc1Nc1cc(Nc2ccc3c(n2)CCCC3N2CC3(CCOCC3)C2)ncn1` (stereo not drawn) [Compound 27, N^4-(5-(7-oxa-2-azaspiro[3.5]nonan-2-yl)-5,6,7,8-tetrahydroquinolin-2-yl)-N^6-(2-(methylsulfonyl)phenyl)pyrimidine-4,6-diamine], the “Ligand Efficiency” value on TYK2-JH2 was “† (†: <0.37)”. The IC50 was under 0.1 µM in the test on IL-12/pSTAT4, over 10 µM in the test on IL-6/pSTAT3 and over 10 µM in the test on GM-CSF/pSTAT5.

Regarding `CS(=O)(=O)c1ccccc1Nc1cc(Nc2ccc(CNC3CCOC3)cn2)ncn1` (stereo not drawn) [Compound 28, N^4-(2-(methylsulfonyl)phenyl)-N^6-(5-((tetrahydrofuran-3-ylamino)methyl)110yridine-2-yl)pyrimidine-4,6-diamine], the “Ligand Efficiency” value on TYK2-JH2 is recorded as “†† (††: 0.37-0.39)”. The results for the IC50 with IL-12/pSTAT4, in the test with IL-6/pSTAT3 and in the test on GM-CSF/pSTAT5 were under 0.1 µM, over 10 µM and over 10 µM, respectively.

In the case of `CC(NC1CC(F)(F)C1)c1ccc(Nc2cc(Nc3ncccc3S(C)(=O)=O)ncn2)nc1` (stereo not drawn) [Compound 35, N^4-(5-(1-(3,3-difluorocyclobutylamino)ethyl)122yridine-2-yl)-N^6-(3-(methylsulfonyl)122yridine-2-yl)pyrimidine-4,6-diamine], the “Ligand Efficiency” value at TYK2-JH2 is reported as “††† (†††: >0.39)”. In addition, the IC50 with IL-12/pSTAT4 is under 0.1 µM; with IL-6/pSTAT3, over 10 µM; in the test with GM-CSF/pSTAT5, over 10 µM.

Turning to `CC(C)(NC1COC1)c1ccc(Nc2cc(Nc3ccccc3S(C)(=O)=O)ncn2)nc1` [Compound 39, N^4-(2-(methylsulfonyl)phenyl)-N^6-(5-(2-(oxetan-3-ylamino)propan-2-yl)127yridine-2-yl)pyrimidine-4,6-diamine], the “Ligand Efficiency” value on TYK2-JH2 is recorded as “†† (††: 0.37-0.39)”. For the same molecule, the IC50 with IL-12/pSTAT4 was under 0.1 µM; in the test on IL-6/pSTAT3 it was over 10 µM; in the test with GM-CSF/pSTAT5, over 10 µM.

For `Cc1ccnc(Nc2cc(Nc3ccccc3S(C)(=O)=O)ncn2)c1` [Compound 44, N^4-(4-methylpyridin-2-yl)-N^6-(2-(methylsulfonyl)phenyl) pyrimidine-4,6-diamine], at TYK2-JH2, the “Ligand Efficiency” value is “††† (†††: >0.39)”. Also, the IC50 in the test with IL-12/pSTAT4 was under 0.1 µM; with IL-6/pSTAT3, over 10 µM; in the test on GM-CSF/pSTAT5 it was over 10 µM.

`Cc1ccnc(Nc2cc(Nc3ccccc3C(N)=O)ncn2)c1` [Compound 45, 2-((6-((4-methylpyridin-2-yl)amino)pyrimidin-4-yl)amino) benzamide]: the “Ligand Efficiency” value on TYK2-JH2 is “††† (†††: >0.39)”. Also, the results for the IC50 in the test on IL-12/pSTAT4, in the test with IL-6/pSTAT3 and in the test on GM-CSF/pSTAT5 were under 0.1 µM, under 4 µM and under 4 µM, respectively.

On to `Cc1cccc(Nc2cc(Nc3ccccc3C(N)=O)ncn2)n1` [Compound 46], for which the “Ligand Efficiency” value on TYK2-JH2 is reported as “††† (†††: >0.39)”. The IC50 in the test on IL-12/pSTAT4 was under 0.1 µM; in the test with IL-6/pSTAT3, under 4 µM; with GM-CSF/pSTAT5 it was under 4 µM.

Take `Cc1cnnc(Nc2cc(Nc3ccccc3C(N)=O)ncn2)c1` [Compound 47, 2-((6-((5-methylpyridazin-3-yl)amino)pyrimidin-4-yl)amino) benzamide]: the “Ligand Efficiency” value on TYK2-JH2 was “††† (†††: >0.39)”. The figures for the IC50 with IL-12/pSTAT4, in the test with IL-6/pSTAT3 and with GM-CSF/pSTAT5 were under 0.1 µM, under 4 µM and over 10 µM, respectively.
